Publication PMC5218480 (PLoS ONE, 2017)

Test system: MV-4-11 cells
Experiment: Gene expression microarray analysis (Affymetrix PrimeView) and GSEA
Assay type: cell-based, human
Set-up: RFU PODN (11730768_x_at) / Fold change /veh PODN (11730768_x_at) / RFU LINC00158 (11744669_a_at) / Fold change /veh LINC00158 (11744669_a_at) / RFU DUSP10 (11751237_a_at) / Fold change /veh DUSP10 (11751237_a_at) / RFU ID3 (11757404_x_at) / Fold change /veh ID3 (11757404_x_at) / RFU PLEKHG5 (11737974_s_at) / Fold change /veh PLEKHG5 (11737974_s_at) / RFU LRRC4B (11730491_at) / Fold change /veh LRRC4B (11730491_at) / RFU GIMAP4 (11747438_a_at) / Fold change /veh GIMAP4 (11747438_a_at) / RFU KRT8 (11758183_x_at) / Fold change /veh KRT8 (11758183_x_at) / RFU CNN1 (11734310_a_at) / Fold change /veh CNN1 (11734310_a_at) / RFU VPS37D (11726825_at) / Fold change /veh VPS37D (11726825_at) / RFU C10orf10 (11716522_x_at) / Fold change /veh C10orf10 (11716522_x_at) / RFU KIR2DL2 /// KIR2DL4 /// KIR2DL5A /// KIR2DL5B /// KIR2DS1 /// KIR2DS2 /// KIR2DS3 /// KIR2DS4 /// KIR3DL3 /// KIR3DL3 /// KIR3DS1 (11738374_at) / Fold change /veh KIR2DL2 /// KIR2DL4 /// KIR2DL5A /// KIR2DL5B /// KIR2DS1 /// KIR2DS2 /// KIR2DS3 /// KIR2DS4 /// KIR3DL3 /// KIR3DL3 /// KIR3DS1 (11738374_at) / RFU C1QL1 (11718748_at) / Fold change /veh C1QL1 (11718748_at) / RFU TMPRSS4 (11747572_a_at) / Fold change /veh TMPRSS4 (11747572_a_at) / RFU HAMP (11756126_x_at) / Fold change /veh HAMP (11756126_x_at) / RFU RNFT2 (11725882_a_at) / Fold change /veh RNFT2 (11725882_a_at) / RFU NR4A2 (11747474_a_at) / Fold change /veh NR4A2 (11747474_a_at) / RFU ABCC12 (11746883_a_at) / Fold change /veh ABCC12 (11746883_a_at) / RFU TMEM136 (11760407_x_at) / Fold change /veh TMEM136 (11760407_x_at) / RFU CLDN22 /// WWC2 (11732394_at) / Fold change /veh CLDN22 /// WWC2 (11732394_at) / RFU HLA-DPB1 (11760878_x_at) / Fold change /veh HLA-DPB1 (11760878_x_at) / RFU SPINT1 (11716480_a_at) / Fold change /veh SPINT1 (11716480_a_at) / RFU GAP43 (11754022_s_at) / Fold change /veh GAP43 (11754022_s_at) / RFU A4GNT (11735810_at) / Fold change /veh A4GNT (11735810_at) / RFU PRB3 (11715151_x_at) / Fold change /veh PRB3 (11715151_x_at) / RFU TUBB4B (11761932_at) / Fold change /veh TUBB4B (11761932_at) / RFU CAPN14 (11732068_a_at) / Fold change /veh CAPN14 (11732068_a_at) / RFU TMCC2 (11721928_a_at) / Fold change /veh TMCC2 (11721928_a_at) / RFU IRGQ (11745062_a_at) / Fold change /veh IRGQ (11745062_a_at) / RFU FAM174B (11720279_a_at) / Fold change /veh FAM174B (11720279_a_at) / RFU TMPRSS4 (11748680_a_at) / Fold change /veh TMPRSS4 (11748680_a_at) / RFU FAM212B (11763350_a_at) / Fold change /veh FAM212B (11763350_a_at) / RFU PLEKHG5 (11743358_a_at) / Fold change /veh PLEKHG5 (11743358_a_at) / RFU ZSCAN30 (11745921_a_at) / Fold change /veh ZSCAN30 (11745921_a_at) / RFU CMKLR1 (11741424_a_at) / Fold change /veh CMKLR1 (11741424_a_at) / RFU LOC101060620 /// MAPK8IP1 (11723275_at) / Fold change /veh LOC101060620 /// MAPK8IP1 (11723275_at) / RFU SPTSSB (11747773_x_at) / Fold change /veh SPTSSB (11747773_x_at) / RFU PRSS12 (11739890_at) / Fold change /veh PRSS12 (11739890_at) / RFU BIN1 (11741810_x_at) / Fold change /veh BIN1 (11741810_x_at) / RFU WNT11 (11732464_a_at) / Fold change /veh WNT11 (11732464_a_at) / RFU C10orf10 (11716521_a_at) / Fold change /veh C10orf10 (11716521_a_at) / RFU C5orf56 (11738089_at) / Fold change /veh C5orf56 (11738089_at) / RFU CYB561 (11721691_x_at) / Fold change /veh CYB561 (11721691_x_at) / RFU ANKRD19P (11752326_a_at) / Fold change /veh ANKRD19P (11752326_a_at) / RFU OR2T12 /// OR2T33 /// OR2T8 (11738714_s_at) / Fold change /veh OR2T12 /// OR2T33 /// OR2T8 (11738714_s_at) / RFU VCAN (11748164_a_at) / Fold change /veh VCAN (11748164_a_at) / RFU JSRP1 (11732532_at) / Fold change /veh JSRP1 (11732532_at) / RFU KRTAP10-11 (11738290_x_at) / Fold change /veh KRTAP10-11 (11738290_x_at) / RFU MYO3A (11730013_a_at) / Fold change /veh MYO3A (11730013_a_at) / RFU EBF3 (11725865_a_at) / Fold change /veh EBF3 (11725865_a_at) / RFU CAMK2N1 (11719241_x_at) / Fold change /veh CAMK2N1 (11719241_x_at) / RFU C5orf56 (11738088_a_at) / Fold change /veh C5orf56 (11738088_a_at) / RFU OLFML3 (11715873_a_at) / Fold change /veh OLFML3 (11715873_a_at) / RFU LOC100653217 /// NTM (11731650_a_at) / Fold change /veh LOC100653217 /// NTM (11731650_a_at) / RFU MAPK11 (11762145_a_at) / Fold change /veh MAPK11 (11762145_a_at) / RFU FIZ1 (11724087_x_at) / Fold change /veh FIZ1 (11724087_x_at) / RFU OASL (11726364_x_at) / Fold change /veh OASL (11726364_x_at) / RFU SOX15 (11748057_x_at) / Fold change /veh SOX15 (11748057_x_at) / RFU CD79A (11719716_a_at) / Fold change /veh CD79A (11719716_a_at) / RFU HIST1H1D (11736915_at) / Fold change /veh HIST1H1D (11736915_at) / RFU CASKIN2 (11723855_a_at) / Fold change /veh CASKIN2 (11723855_a_at) / RFU LOC730098 (11760151_x_at) / Fold change /veh LOC730098 (11760151_x_at) / RFU OR4N2 (11742367_at) / Fold change /veh OR4N2 (11742367_at) / RFU PRRT2 (11749266_a_at) / Fold change /veh PRRT2 (11749266_a_at) / RFU SNX32 (11753110_a_at) / Fold change /veh SNX32 (11753110_a_at) / RFU CDHR5 (11726645_a_at) / Fold change /veh CDHR5 (11726645_a_at) / RFU RCAN1 (11760418_a_at) / Fold change /veh RCAN1 (11760418_a_at) / RFU FAM167A (11723789_a_at) / Fold change /veh FAM167A (11723789_a_at) / RFU FAM26E (11764081_at) / Fold change /veh FAM26E (11764081_at) / RFU ISYNA1 (11749810_s_at) / Fold change /veh ISYNA1 (11749810_s_at) / RFU ACY1 (11761880_at) / Fold change /veh ACY1 (11761880_at) / RFU 11764098_at / Fold change /veh 11764098_at / RFU SAMD14 (11745864_x_at) / Fold change /veh SAMD14 (11745864_x_at) / RFU NPB (11741838_a_at) / Fold change /veh NPB (11741838_a_at) / RFU TMPRSS6 (11731388_a_at) / Fold change /veh TMPRSS6 (11731388_a_at) / RFU KRTAP10-2 (11738614_at) / Fold change /veh KRTAP10-2 (11738614_at) / RFU ARHGAP8 /// PRR5-ARHGAP8 (11727945_x_at) / Fold change /veh ARHGAP8 /// PRR5-ARHGAP8 (11727945_x_at) / RFU KRTAP5-7 /// NADSYN1 (11734609_at) / Fold change /veh KRTAP5-7 /// NADSYN1 (11734609_at) / RFU RASL12 (11751679_a_at) / Fold change /veh RASL12 (11751679_a_at) / RFU CDKN2B (11736163_a_at) / Fold change /veh CDKN2B (11736163_a_at) / RFU PRF1 (11729649_at) / Fold change /veh PRF1 (11729649_at) / RFU, ZNF638 /// ZNF638-IT1 / Fold change vs veh, ZNF638 /// ZNF638-IT1 / RFU, PANK3 / Fold change vs veh, PANK3 / RFU, SH3YL1 / Fold change vs veh, SH3YL1 / RFU, ZEB2 / Fold change vs veh, ZEB2 / RFU, NRIP1 / Fold change vs veh, NRIP1 / RFU, PTTG1IP / Fold change vs veh, PTTG1IP / RFU, CAPN2 / Fold change vs veh, CAPN2 / RFU, MED14 / Fold change vs veh, MED14 / RFU, SNORA58 / Fold change vs veh, SNORA58 / RFU, C1orf63 / Fold change vs veh, C1orf63 / RFU, LRRFIP1 / Fold change vs veh, LRRFIP1 / RFU, NDUFAF7 / Fold change vs veh, NDUFAF7 / RFU, SLC12A2 / Fold change vs veh, SLC12A2 / RFU, IBTK / Fold change vs veh, IBTK / RFU, ESF1 / Fold change vs veh, ESF1 / Fold change vs veh, TMEM50B / RFU, TAOK1 / Fold change vs veh, TAOK1 / RFU, ACBD3 / Fold change vs veh, ACBD3 / RFU, TMA16 / Fold change vs veh, TMA16 / RFU, RWDD3 / Fold change vs veh, RWDD3 / RFU, BCAT1 / Fold change vs veh, BCAT1 / RFU, EDEM3 / Fold change vs veh, EDEM3 / RFU, TMEM33 / Fold change vs veh, TMEM33 / RFU, WDR75 / Fold change vs veh, WDR75 / RFU, AHCTF1 / Fold change vs veh, AHCTF1 / RFU, TFRC / Fold change vs veh, TFRC / RFU, ZDHHC17 / Fold change vs veh, ZDHHC17 / RFU, NOM1 / Fold change vs veh, NOM1 / RFU, ARL8B / Fold change vs veh, ARL8B / RFU, ZBTB11 / Fold change vs veh, ZBTB11 / RFU, TAMM41 / Fold change vs veh, TAMM41 / RFU, KIAA1704 /// LOC100996395 / Fold change vs veh, KIAA1704 /// LOC100996395 / RFU, ING1 / Fold change vs veh, ING1 / RFU, TRMT61B / Fold change vs veh, TRMT61B / RFU, FUBP3 / Fold change vs veh, FUBP3 / RFU, TP53 / Fold change vs veh, TP53 / RFU, TNKS2 / Fold change vs veh, TNKS2 / RFU, ZFP14 / Fold change vs veh, ZFP14 / RFU, ACTR2 / Fold change vs veh, ACTR2 / RFU, PPP3R1 / Fold change vs veh, PPP3R1 / RFU, PIK3R1 / Fold change vs veh, PIK3R1 / RFU, HNRNPA1 / Fold change vs veh, HNRNPA1 / RFU, RNF170 / Fold change vs veh, RNF170 / RFU, ZNF28 / Fold change vs veh, ZNF28 / RFU, RNGTT / Fold change vs veh, RNGTT / RFU, OGT / Fold change vs veh, OGT / RFU, BRD1 / Fold change vs veh, BRD1 / RFU, MARS / Fold change vs veh, MARS / RFU, ZNF655 / Fold change vs veh, ZNF655 / RFU, FAHD1 / Fold change vs veh, FAHD1 / RFU, BDP1 / Fold change vs veh, BDP1 / RFU, LRRCC1 / Fold change vs veh, LRRCC1 / RFU, ARID1A / Fold change vs veh, ARID1A / RFU, ZNF146 / Fold change vs veh, ZNF146 / RFU, ZNF330 / Fold change vs veh, ZNF330 / RFU, GPN3 / Fold change vs veh, GPN3 / RFU, C9orf123 / Fold change vs veh, C9orf123 / RFU, N4BP2L2 / Fold change vs veh, N4BP2L2 / RFU, ARFIP1 / Fold change vs veh, ARFIP1 / RFU, FAM179B / Fold change vs veh, FAM179B / RFU, BCL10 / Fold change vs veh, BCL10 / RFU, UHRF1BP1L / Fold change vs veh, UHRF1BP1L / RFU, BET1 / Fold change vs veh, BET1 / RFU, CNOT2 / Fold change vs veh, CNOT2 / RFU, ZNF268 / Fold change vs veh, ZNF268 / Fold change vs veh, ZNF507 / RFU, DGCR2 / Fold change vs veh, DGCR2 / RFU, WDSUB1 / Fold change vs veh, WDSUB1 / Fold change vs veh, HSP90B1 /// MIR3652 / RFU, ADSS / Fold change vs veh, ADSS / RFU, GK / Fold change vs veh, GK / RFU, ZNF148 / Fold change vs veh, ZNF148 / RFU, TAF9 / Fold change vs veh, TAF9 / RFU, SLC1A5 / Fold change vs veh, SLC1A5 / RFU, SLMO2 / Fold change vs veh, SLMO2 / RFU, ABCC4 / Fold change vs veh, ABCC4 / RFU, LOC101060439 /// RAP1B / Fold change vs veh, LOC101060439 /// RAP1B / RFU, RFX7 / Fold change vs veh, RFX7 / RFU, GTPBP10 / Fold change vs veh, GTPBP10 / RFU, CNEP1R1 / Fold change vs veh, CNEP1R1 / RFU, BIVM-ERCC5 /// ERCC5 / Fold change vs veh, BIVM-ERCC5 /// ERCC5 / RFU, ILF3 / Fold change vs veh, ILF3 / RFU 11762660_at / Fold change /veh 11762660_at / RFU VCAN (11757783_s_at) / Fold change /veh VCAN (11757783_s_at) / RFU DDX43 (11728927_at) / Fold change /veh DDX43 (11728927_at) / RFU KRT8 (11758188_x_at) / Fold change /veh KRT8 (11758188_x_at) / RFU NKD1 (11759106_at) / Fold change /veh NKD1 (11759106_at) / RFU SRD5A1 (11742802_a_at) / Fold change /veh SRD5A1 (11742802_a_at) / RFU TPSAB1 /// TPSB2 (11721975_s_at) / Fold change /veh TPSAB1 /// TPSB2 (11721975_s_at) / RFU GSTM3 (11746129_a_at) / Fold change /veh GSTM3 (11746129_a_at) / RFU IL23R (11737362_x_at) / Fold change /veh IL23R (11737362_x_at) / RFU TMEM51 (11727254_a_at) / Fold change /veh TMEM51 (11727254_a_at) / RFU PIWIL2 (11732686_x_at) / Fold change /veh PIWIL2 (11732686_x_at) / RFU ORM1 (11744905_x_at) / Fold change /veh ORM1 (11744905_x_at) / RFU CCDC152 (11743942_at) / Fold change /veh CCDC152 (11743942_at) / RFU ECM1 (11717891_a_at) / Fold change /veh ECM1 (11717891_a_at) / RFU IL23R (11748794_a_at) / Fold change /veh IL23R (11748794_a_at) / RFU TNFAIP8L3 (11732012_x_at) / Fold change /veh TNFAIP8L3 (11732012_x_at) / RFU MBOAT4 (11741988_at) / Fold change /veh MBOAT4 (11741988_at) / RFU 11764193_at / Fold change /veh 11764193_at / RFU TMEM53 (11763286_at) / Fold change /veh TMEM53 (11763286_at) / RFU MAGEB2 (11727129_at) / Fold change /veh MAGEB2 (11727129_at) / RFU TMEM200A (11744735_a_at) / Fold change /veh TMEM200A (11744735_a_at) / RFU CCDC152 (11751479_a_at) / Fold change /veh CCDC152 (11751479_a_at) / RFU FAM211A (11726209_a_at) / Fold change /veh FAM211A (11726209_a_at) / RFU RGS16 (11746705_a_at) / Fold change /veh RGS16 (11746705_a_at) / RFU VCAN (11755009_s_at) / Fold change /veh VCAN (11755009_s_at) / RFU RHOB (11743442_s_at) / Fold change /veh RHOB (11743442_s_at) / RFU RGS16 (11720943_a_at) / Fold change /veh RGS16 (11720943_a_at) / RFU RGS16 (11720944_at) / Fold change /veh RGS16 (11720944_at) / RFU, VPS4B / Fold change vs veh, VPS4B / RFU, CREB1 / Fold change vs veh, CREB1 / RFU, DNAJC13 / Fold change vs veh, DNAJC13 / RFU, GNAQ / Fold change vs veh, GNAQ / RFU, CDK5R1 / Fold change vs veh, CDK5R1 / RFU, ZRANB3 / Fold change vs veh, ZRANB3 / RFU, CUL4A / Fold change vs veh, CUL4A / RFU, CCNY / Fold change vs veh, CCNY / RFU, UFL1 / Fold change vs veh, UFL1 / RFU, COG3 / Fold change vs veh, COG3 / RFU, DIAPH2 / Fold change vs veh, DIAPH2 / RFU, SKA2 / Fold change vs veh, SKA2 / RFU, AFF3 / Fold change vs veh, AFF3 / RFU, LMF1 / Fold change vs veh, LMF1 / RFU, IPO11 / Fold change vs veh, IPO11 / RFU, DFFB / Fold change vs veh, DFFB / RFU, FOXP1 / Fold change vs veh, FOXP1 / RFU, CARD8 / Fold change vs veh, CARD8 / RFU, STRN3 / Fold change vs veh, STRN3 / RFU, ADK / Fold change vs veh, ADK / RFU, RASSF2 / Fold change vs veh, RASSF2 / RFU, WIPF1 / Fold change vs veh, WIPF1 / RFU, LARP1B / Fold change vs veh, LARP1B / RFU, RASA1 / Fold change vs veh, RASA1 / RFU, RB1 / Fold change vs veh, RB1 / RFU, PPFIA1 / Fold change vs veh, PPFIA1 / RFU, MAT2A / Fold change vs veh, MAT2A / RFU, CCT5 / Fold change vs veh, CCT5 / RFU, WDR92 / Fold change vs veh, WDR92 / RFU, CUX1 / Fold change vs veh, CUX1 / RFU, TTC7A / Fold change vs veh, TTC7A / RFU, TMEM135 / Fold change vs veh, TMEM135 / RFU, DEPTOR / Fold change vs veh, DEPTOR / RFU, CPM / Fold change vs veh, CPM / RFU, DNAJB6 / Fold change vs veh, DNAJB6 / RFU, CACNA2D3 / Fold change vs veh, CACNA2D3 / RFU, DTX4 / Fold change vs veh, DTX4 / RFU, TFCP2 / Fold change vs veh, TFCP2 / RFU, GMCL1 /// GMCL1P1 / Fold change vs veh, GMCL1 /// GMCL1P1 / RFU, AEBP2 / Fold change vs veh, AEBP2 / RFU, SNHG1 /// SNORD22 /// SNORD25 /// SNORD26 /// SNORD27 /// SNORD28 /// SNORD29 /// SNORD31 / Fold change vs veh, SNHG1 /// SNORD22 /// SNORD25 /// SNORD26 /// SNORD27 /// SNORD28 /// SNORD29 /// SNORD31 / Fold change (Aza/veh), C12orf56 (ProbeSet 11735607_a_at) / Fold change (ACY-1035/veh), C12orf56 (ProbeSet 11735607_a_at) / Fold change (Aza/veh), FGFR1OP (ProbeSet 11751329_s_at) / Fold change (ACY-1035/veh), FGFR1OP (ProbeSet 11751329_s_at) / Fold change (Aza/veh), VPS36 (ProbeSet 11739960_a_at) / Fold change (ACY-1035/veh), VPS36 (ProbeSet 11739960_a_at) / RFU SYPL1 (11715823_x_at) / Fold change /veh SYPL1 (11715823_x_at) / RFU IGFBP7 (11715501_s_at) / Fold change /veh IGFBP7 (11715501_s_at) / RFU REEP3 (11722064_at) / Fold change /veh REEP3 (11722064_at) / RFU IGLL1 (11728026_x_at) / Fold change /veh IGLL1 (11728026_x_at): dose or concentration left out as unconfirmed
Settings: ProbeSet 11732154_at; LIST B

With `Nc1ncn([C@@H]2O[C@H](CO)[C@@H](O)[C@H]2O)c(=O)n1` [azacitidine] the “RFU, OGT” value was 289.66 RFU.
